The values below are quoted from earlier work in patent publication US8420131B2, “Composition for obesity treatment” (priority 2011, dated 2013).

For data set [1] the following is noted: in vivo.
For data set [2] the following is noted: in vivo. This is another data set of the same source.
The conditions of data set [3]: patients with PCOS.
For data set [4] the following is noted: humans.
The conditions of data set [5]: animal study.
Data set [6] relates to human white preadipocytes.
For data set [7] the following is noted: sixty depressed patients, added to imipramine therapy.

Take `O[C@H]1[C@H](O)[C@@H](O)[C@H](O)[C@@H](O)[C@H]1O` [inositol]: in data set [1], the “decreasing the number of panic attacks, compared with fluvoxamine” value is listed as “superior”. In addition, the “symptoms of depressed patients” value in data set [2] is reported as “significant improvement”. Also, the “action of insulin / insulin sensitivity” value in data set [3] is reported as “increases the action of insulin”.
In the case of `CC(/C=C/C=C(\C)C(=O)O)=C\C=C\C=C(C)\C=C\C=C(/C)C(=O)O` [crocetin], the “inhibition of the effect of lipase” value with lipase is “potently inhibit”. For the same molecule, the “potency compared with orlistat” value (dose of 50 mg/kg versus orlistat at 10 mg/kg) is given as “comparable”. For the same molecule, the fat deposits entry (mice fed on a high fat diet) is “significantly reduced”.
Turning to `[Mg+2]` [magnesium], the “effectiveness in treating depression compared with imipramine” value in data set [4] is given as “as effective as imipramine”. Moreover, the “effect compared with imipramine” value in [5] is “comparable”.
Turning to `COc1ccc2cc3[n+](cc2c1OC)CCc1cc2c(cc1-3)OCO2` [berberine], in data set [6], the adipogenesis entry is on record as “inhibit adipogenesis”.
For the molecule `[Zn]` [zinc], in data set [7], the depression scores entry was “significantly reduced”.
`CC(/C=C/C=C(\C)C(=O)O[C@@H]1O[C@H](CO[C@@H]2O[C@H](CO)[C@@H](O)[C@H](O)[C@H]2O)[C@@H](O)[C@H](O)[C@H]1O)=C\C=C\C=C(C)\C=C\C=C(/C)C(=O)O[C@@H]1O[C@H](CO[C@@H]2O[C@H](CO)[C@@H](O)[C@H](O)[C@H]2O)[C@@H](O)[C@H](O)[C@H]1O` [crocin]: the “inhibition of the effect of lipase” value with lipase is “potently inhibit”.
